Active and inactive are the calls of the source. The calls are words filed in the database; no cut-off is given here.
Key:
Rattus norvegicus [1] = experiment: Hypotensive activity in normotensive Wistar rat assessed as systolic blood pressure at 0.5 mg/kg, iv measured after 5 mins (reference value: 116 +/- 4.6 mmHg); assay type: functional
Rattus norvegicus [2] = experiment: Hypotensive activity in normotensive Wistar rat assessed as systolic blood pressure at 0.5 mg/kg, iv measured after 60 mins (reference value: 147.7 +/- 5.9 mmHg); assay type: functional
Rattus norvegicus [3] = experiment: Antiarrhythmic activity in Wistar rat assessed as inhibition of adrenaline-induced premature ventricular extrasystoles administered iv 15 mins prior to adrenaline challenge; assay type: functional
Rattus norvegicus [4] = experiment: Hypotensive activity in normotensive Wistar rat assessed as diastolic blood pressure at 5 mg/kg, iv measured after 30 mins (reference value: 86.5 to 119.4 mmHg); assay type: functional
Rattus norvegicus [5] = experiment: Cardiotoxicity in Wistar rat assessed as effect on heart rate at 5 mg/kg, iv measured after 15 mins (reference value: 323 to 374.5 bpm); assay type: toxicity, organism-based; conditions: in vivo, 0.25 h
Rattus norvegicus [6] = experiment: Hypotensive activity in normotensive Wistar rat assessed as diastolic blood pressure at 1 mg/kg, iv measured after 10 mins (reference value: 88.4 to 122.7 mmHg); assay type: functional
Rattus norvegicus [7] = experiment: Hypotensive activity in normotensive Wistar rat assessed as diastolic blood pressure at 1 mg/kg, iv measured after 5 mins (reference value: 88.4 to 122.7 mmHg); assay type: functional
Rattus norvegicus [8] = experiment: Hypotensive activity in normotensive Wistar rat assessed as diastolic blood pressure at 1 mg/kg, iv measured after 20 mins (reference value: 88.4 to 122.7 mmHg); assay type: functional
Blood [9] = experiment: Anti-aggregative activity in Wistar rat whole blood assessed as inhibition of collagen-induced aggregation preincubated for 3 mins followed by collagen induction measured for 6 mins; assay type: functional, tissue-based
Rattus norvegicus [10] = experiment: Hypotensive activity in normotensive Wistar rat assessed as systolic blood pressure at 1 mg/kg, iv measured after 10 mins (reference value: 122.4 to 156.5 mmHg); assay type: functional
Rattus norvegicus [11] = experiment: Hypotensive activity in normotensive Wistar rat assessed as systolic blood pressure at 1 mg/kg, iv measured after 60 mins (reference value: 122.4 to 156.5 mmHg); assay type: functional
Rattus norvegicus [12] = experiment: Hypotensive activity in normotensive Wistar rat assessed as diastolic blood pressure at 1 mg/kg, iv measured after 60 mins (reference value: 88.4 to 122.7 mmHg); assay type: functional
Rattus norvegicus [13] = experiment: Cardiotoxicity in Wistar rat assessed as effect on PQ interval time at 5 mg/kg, iv measured after 1 min (reference value: 52 to 57 ms); assay type: toxicity, organism-based; conditions: in vivo
Rattus norvegicus [14] = experiment: Hypotensive activity in normotensive Wistar rat assessed as systolic blood pressure at 1 mg/kg, iv measured after 20 mins (reference value: 122.4 to 156.5 mmHg); assay type: functional
Rattus norvegicus [15] = experiment: Hypotensive activity in normotensive Wistar rat assessed as diastolic blood pressure at 1 mg/kg, iv measured after 30 mins (reference value: 88.4 to 122.7 mmHg); assay type: functional
Rattus norvegicus [16] = experiment: Cardiotoxicity in Wistar rat assessed as effect on heart rate at 5 mg/kg, iv measured after 5 mins (reference value: 323 to 374.5 bpm); assay type: toxicity, organism-based; conditions: in vivo
Rattus norvegicus [17] = experiment: Cardiotoxicity in Wistar rat assessed as effect on PQ interval time at 5 mg/kg, iv measured after 15 mins (reference value: 52 to 57 ms); assay type: toxicity, organism-based; conditions: in vivo, 0.25 h
Rattus norvegicus [18] = experiment: Cardiotoxicity in Wistar rat assessed as effect on QT interval time at 5 mg/kg, iv measured after 5 mins (reference value: 57.7 to 61 ms); assay type: toxicity, organism-based; conditions: in vivo
Rattus norvegicus [19] = experiment: Cardiotoxicity in Wistar rat assessed as effect on QRS interval time at 5 mg/kg, iv measured after 15 mins (reference value: 16.7 to 20.7 ms); assay type: toxicity, organism-based; conditions: in vivo, 0.25 h
[20] = biological target: T1, Adrenergic receptor alpha-1 (Rattus norvegicus) (UniProt P15823+P23944+P43140); experiment: Antagonist activity at adrenergic alpha1 receptor in isolated Wistar rat aorta assessed as inhibition of […] contraction incubated for 20 mins
Rattus norvegicus [21] = experiment: Hypotensive activity in normotensive Wistar rat assessed as systolic blood pressure at 1 mg/kg, iv measured after 5 mins (reference value: 122.4 to 156.5 mmHg); assay type: functional
Rattus norvegicus [22] = experiment: Hypotensive activity in normotensive Wistar rat assessed as systolic blood pressure at 1 mg/kg, iv measured after 30 mins (reference value: 122.4 to 156.5 mmHg); assay type: functional
Rattus norvegicus [23] = experiment: Hypotensive activity in normotensive Wistar rat assessed as systolic blood pressure at 5 mg/kg, iv measured after 5 mins (reference value: 119.2 to 148.6 mmHg); assay type: functional
Rattus norvegicus [24] = experiment: Hypotensive activity in normotensive Wistar rat assessed as systolic blood pressure at 5 mg/kg, iv measured after 10 mins (reference value: 119.2 to 148.6 mmHg); assay type: functional
Rattus norvegicus [25] = experiment: In vivo inhibition of beta adrenoceptor in Wistar rat assessed as reduction in isoprenaline-induced tachycardia at 5 mg/kg, iv administered as single dose 10 mins prior to isoprenaline injection; assay type: functional, organism-based
[26] = biological target: Beta-2 adrenergic receptor (Cavia porcellus, UniProt Q8K4Z4); experiment: Antagonist activity at adrenergic beta2 receptor in isolated guinea pig trachea assessed as inhibition of isoprenaline-induced bronchodilation incubated for 20 mins; assay type: functional; conditions: read-out: pA2 (converted)
Sequence of Beta-2 adrenergic receptor (Q8K4Z4 whole entry): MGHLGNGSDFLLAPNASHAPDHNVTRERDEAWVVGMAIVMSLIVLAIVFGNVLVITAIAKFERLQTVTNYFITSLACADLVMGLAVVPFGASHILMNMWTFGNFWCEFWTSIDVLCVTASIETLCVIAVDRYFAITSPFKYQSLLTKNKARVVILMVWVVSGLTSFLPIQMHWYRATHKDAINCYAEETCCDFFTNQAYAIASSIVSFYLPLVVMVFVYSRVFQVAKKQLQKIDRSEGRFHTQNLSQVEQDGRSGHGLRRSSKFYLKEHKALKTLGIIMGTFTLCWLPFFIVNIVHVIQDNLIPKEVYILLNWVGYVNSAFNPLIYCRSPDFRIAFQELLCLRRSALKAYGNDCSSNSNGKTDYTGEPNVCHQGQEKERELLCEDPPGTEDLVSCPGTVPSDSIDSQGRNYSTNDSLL

Rattus norvegicus [27] = experiment: Hypotensive activity in normotensive Wistar rat assessed as reduction in diastolic blood pressure at 1 mg/kg, iv measured over 40th min relative to control; assay type: functional; design: scale not given: the % may be the effect or the level left
Rattus norvegicus [28] = experiment: Hypotensive activity in normotensive Wistar rat assessed as reduction in systolic blood pressure at 1 mg/kg, iv measured over 30 mins relative to control; assay type: functional; design: scale not given: the % may be the effect or the level left
Blood [29] = experiment: Anti-aggregative activity in Wistar rat whole blood assessed as inhibition of collagen/adrenaline-induced aggregation preincubated for 3 mins followed by collagen induction measured for 6 mins; assay type: functional, tissue-based
[30] = biological target: T1, Adrenergic receptor alpha-1 (Rattus norvegicus); experiment: Displacement of [3H][…]prazosin from adrenergic alpha1 receptor in Wistar rat cortex at 10^-5 M incubated for 30 mins by microbeta liquid scintillation counting analysis
Rattus norvegicus [31] = experiment: Cardiotoxicity in Wistar rat assessed as effect on heart rate at 1 mg/kg, iv measured after 15 mins (reference value: 320.6 +/- 8.1 bpm); assay type: toxicity, organism-based; conditions: in vivo, 0.25 h
Rattus norvegicus [32] = experiment: Cardiotoxicity in Wistar rat assessed as effect on heart rate at 1 mg/kg, iv measured after 1 min (reference value: 320.6 +/- 8.1 bpm); assay type: toxicity, organism-based; conditions: in vivo
Rattus norvegicus [33] = experiment: Cardiotoxicity in Wistar rat assessed as effect on QTC interval time at 1 mg/kg, iv measured after 5 mins (reference value: 137.7 +/- 2 ms); assay type: toxicity, organism-based; conditions: in vivo
Rattus norvegicus [34] = experiment: Cardiotoxicity in Wistar rat assessed as effect on QRS interval time at 1 mg/kg, iv measured after 5 mins (reference value: 19.4 +/- 0.9 ms); assay type: toxicity, organism-based; conditions: in vivo
Rattus norvegicus [35] = experiment: Hypotensive activity in normotensive Wistar rat assessed as systolic blood pressure at 2.5 mg/kg, iv measured after 10 mins (reference value: 148.5 +/- 2.6 mmHg); assay type: functional
Rattus norvegicus [36] = experiment: Hypotensive activity in normotensive Wistar rat assessed as systolic blood pressure at 2.5 mg/kg, iv measured after 30 mins (reference value: 148.5 +/- 2.6 mmHg); assay type: functional
Blood [37] = experiment: Anti-aggregative activity in Wistar rat whole blood assessed as inhibition of collagen-induced aggregation up to 100 uM preincubated for 3 mins followed by collagen induction measured for 6 mins; assay type: functional, tissue-based

| IC50 (Blood [9]) [µM] | Structure (SMILES) | Activity (Rattus norvegicus [4]) [mmHg] | Activity (Rattus norvegicus [5]) [bpm] | Activity (Rattus norvegicus [6]) [mmHg] | Activity (Rattus norvegicus [7]) [mmHg] | Activity (Rattus norvegicus [8]) [mmHg] | inhibition (Blood [9]) | Activity (Rattus norvegicus [10]) [mmHg] | Activity (Rattus norvegicus [11]) [mmHg] | Activity (Rattus norvegicus [12]) [mmHg] | Time (Rattus norvegicus [13]) [ms] | Activity (Rattus norvegicus [14]) [mmHg] | Activity (Rattus norvegicus [15]) [mmHg] | Activity (Rattus norvegicus [16]) [bpm] | Time (Rattus norvegicus [17]) [ms] | Time (Rattus norvegicus [18]) [ms] | Time (Rattus norvegicus [19]) [ms] | Activity (Rattus norvegicus [21]) [mmHg] | Activity (Rattus norvegicus [23]) [mmHg] | Activity (Rattus norvegicus [24]) [mmHg] | other results |
| --- | --- | --- | --- | --- | --- | --- | --- | --- | --- | --- | --- | --- | --- | --- | --- | --- | --- | --- | --- | --- | --- |
| 64.1 | Cl.O=c1c2ccccc2oc2c(OCC(O)CN3CCN(c4ccccn4)CC3)cccc12 (racemic) | 99.8 | 343 | 113.5 | 111.7 | 133 | Dose-dependent effect | 146.2 | 138.7 | 106.7 | 58.2 | 142.5 | 110.5 | 356 | 59 | 59.5 | 19.2 | 146.2 | 136.8 | 131.4 | Activity (Rattus norvegicus [1]): 116.3 mmHg; Activity (Rattus norvegicus [2]): 132 mmHg; ED50 (Rattus norvegicus [3]): 4.82 mg/kg; pKb [20]: 7.52; Activity (Rattus norvegicus [22]): 140 mmHg |
| 86.8 | COc1ccccc1CNCC(O)COc1cccc2c(=O)c3ccccc3oc12.Cl (racemic) | 96 | 265 | – | – | – | Dose-dependent effect | – | – | – | 60.7 | – | – | 243.7 | 57.7 | 64.7 | 21.3 | – | 149.3 | 147.7 | inhibition (Rattus norvegicus [25]): Active; Kb [26]: 0.114 µM |
| 77 | Cl.O=c1c2ccccc2oc2cc(OCC(O)CN3CCN(c4ccccn4)CC3)ccc12 (racemic) | 79.5 | 295.3 | 107 | 107.5 | 103.8 | Dose-dependent effect | 136 | 122.7 | 94.2 | 55.3 | 131 | 100.2 | 313 | 56 | 58.3 | 21.3 | 138.3 | 114.7 | 110.3 | Activity (Rattus norvegicus [27]): 8 - 10%; pKb [20]: 8.2; Activity (Rattus norvegicus [22]): 127.2 mmHg |
| 49.5 | COc1ccccc1OCCNCC(O)COc1cccc2c(=O)c3ccccc3oc12.Cl (racemic) | 77.2 | 308.7 | 82.8 | 85.4 | 84 | Dose-dependent effect | 114.8 | 106.8 | 75.6 | 56 | 114.8 | 81.6 | 296 | 57.3 | 67.3 | 18.7 | 119.6 | 121.6 | 106.5 | inhibition (Rattus norvegicus [25]): Active; Activity (Rattus norvegicus [28]): 6 - 13%; Kb [26]: 0.0181 µM; pKb [20]: 8.34; Activity (Rattus norvegicus [22]): 112.4 mmHg |
| 33.4 | COc1ccccc1CCNCC(O)COc1cccc2c(=O)c3ccccc3oc12.Cl (racemic) | 97.2 | 390.5 | 114.2 | 114.8 | 111.5 | Dose-dependent effect | 147 | 126.3 | 101.2 | 52 | 141 | 107.7 | 336 | 51 | 61 | 17 | 147.8 | 146.2 | 133.4 | ED50 (Rattus norvegicus [3]): 2.2 mg/kg; IC50 (Blood [29]): 44.8 µM; inhibition (Blood [29]): Dose-dependent effect; inhibition (Rattus norvegicus [25]): Active; Activity (Rattus norvegicus [28]): 5 - 11%; Kb [26]: 0.0214 µM; pKb [20]: 8.28; Activity (Rattus norvegicus [22]): 135 mmHg |
| 33 | CC(C)(C)NCC(O)COc1cccc2c(=O)c3ccccc3oc12.Cl (racemic) | – | – | 109.5 | 111 | 103.7 | Dose-dependent effect | 142.6 | 123 | 96.7 | – | 131.6 | 100 | – | – | – | – | 146.4 | – | – | Activity [30]: inactive; ED50 (Rattus norvegicus [3]): 1.63 mg/kg; IC50 (Blood [29]): 82.3 µM; inhibition (Blood [29]): Dose-dependent effect; Activity (Rattus norvegicus [31]): 290.6 bpm; Activity (Rattus norvegicus [32]): 307.2 bpm; Kb [26]: 0.00031 µM; Time (Rattus norvegicus [33]): 132.2 ms; Time (Rattus norvegicus [34]): 19 ms; Activity (Rattus norvegicus [22]): 128.2 mmHg |
| – | COc1ccc(CCNCC(O)COc2cccc3c(=O)c4ccccc4oc23)cc1OC.Cl (racemic) | 96.2 | 265.7 | – | – | – | – | – | – | – | 62.7 | – | – | 254.7 | 59.3 | 66.7 | 21.3 | – | 135.4 | 135.6 | Activity [30]: inactive; inhibition (Rattus norvegicus [25]): Active; Activity (Rattus norvegicus [35]): 135 mmHg; Kb [26]: 0.0414 µM; Activity (Rattus norvegicus [36]): 130.7 mmHg; inhibition (Blood [37]): inactive |

Reference: ChEMBL document CHEMBL4118148, “Design, synthesis and cardiovascular evaluation of some aminoisopropanoloxy derivatives of xanthone” (Bioorg Med Chem, 2018)
